The values below come from patent US20220411471A1, “CELL-PERMEABLE CYCLIC PEPTIDES AND USES THEREOF” (Unnatural Products Inc., priority 2019, published 2022).

Where two headings read alike, the source gives them in different places. Non-standard residues stand in square brackets, D forms with d. Residues, ends and D or L forms follow the SMILES beside them. Ala(4-thiazolyl) = N[C@@H](Cc1cscn1)C(=O)O; NMePhe(4-F) = CN[C@@H](Cc1ccc(F)cc1)C(=O)O; Phe(4-Cl) = N[C@@H](Cc1ccc(Cl)cc1)C(=O)O; Phe(4-F) = N[C@@H](Cc1ccc(F)cc1)C(=O)O; NMeF = CN[C@@H](Cc1ccccc1)C(=O)O; dNMeV = CN[C@@H](C(=O)O)C(C)C; Tle = CC(C)(C)[C@H](N)C(=O)O; dPip = O=C(O)[C@H]1CCCCN1; hSer = N[C@@H](CCO)C(=O)O; NMeA = CN[C@@H](C)C(=O)O; dNMeA = CN[C@H](C)C(=O)O; Nme = COCCNCC(=O)O; Sar = CNCC(=O)O Bounds are passed on as bounds.

Holding throughout (format): binding
Experiment [1] concerns the target T1, Human MDM2 (HDM2) 1-116 (Homo sapiens, UniProt Q00987).
T1 construct: Human MDM2 (HDM2) 1-116
Kind of experiment: Fluorescence polarization assay, MDM2/p53 (Table 3).

The target in another experiment is T2, Human MDM4 (HDM4) 1-114 (Homo sapiens, UniProt O15151).
T2 construct: Human MDM4 (HDM4) 1-114
T2 sequence (O15151 1-114): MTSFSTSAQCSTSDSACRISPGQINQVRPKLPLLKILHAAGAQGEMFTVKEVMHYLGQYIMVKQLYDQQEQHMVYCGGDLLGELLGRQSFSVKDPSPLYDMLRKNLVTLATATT
The experiment in a line: Fluorescence polarization assay 2, MDM4 (Table 4). Here is the method:
Compounds dissolved in DMSO were pin transferred (˜100-200 nL) to the 384 well plate containing the MDM4/p53 solution. After incubation for 60 minutes, the fluorescence polarization was read on a Molecular Devices SpectraMax plate reader equipped with a Fluorescein FP cartridge. In addition to probe alone (positive control) and probe/MDM4 (negative control), a titration of linear p53(18-26) was included on every plate as an additional control. IC50 values were fit using either Prism or Collaborative Drug Discovery.

Experiment [2] has as its target T1, Human MDM2 (HDM2) 1-116. Kind of experiment: Fluorescence polarization assay 2, MDM2 (Table 4). Here is the method:
Compounds dissolved in DMSO were pin transferred (˜100-200 nL) to the 384 well plate containing the MDM2/p53 solution. After incubation for 60 minutes, the fluorescence polarization was read on a Molecular Devices SpectraMax plate reader equipped with a Fluorescein FP cartridge. In addition to probe alone (positive control) and probe/MDM2 (negative control), a titration of linear p53(18-26) was included on every plate as an additional control. IC50 values were fit using either Prism or Collaborative Drug Discovery.

Where [3] appears, read: Table 4, fluorescence polarization, read-out: MDM4 IC50.
The mark [4] stands for this setting: Table 4, fluorescence polarization, read-out: MDM2 IC50.

T1 sequence (Q00987 1-116): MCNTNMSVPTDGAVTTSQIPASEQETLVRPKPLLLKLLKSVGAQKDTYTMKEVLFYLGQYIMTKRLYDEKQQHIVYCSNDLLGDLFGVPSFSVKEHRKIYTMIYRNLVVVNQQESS

In turn, `COCCN1CC(=O)N(C)[C@@H](C)C(=O)N[C@@H](Cc2ccc(F)cc2)C(=O)N(C)[C@@H](C)C(=O)N[C@@H](Cc2ccc(Cl)cc2)C(=O)N2CCCC[C@@H]2C(=O)N2CCC[C@H]2C(=O)N[C@@H](Cc2ccccc2)C(=O)N[C@@H](C(C)(C)C)C(=O)N[C@@H](Cc2ccc(O)cc2)C1=O` [Compound 30, [H]Oc1ccc(C[C@@H]2NC(=O)[C@@H](NC(=O)[C@H](Cc3ccccc3)NC(=O)[C@@H]3CCCN3C(=O)[C@H]3CCCCN3C(=O)[C@H](Cc3ccc(Cl)cc3)NC(=O)[C@H](C)N(C)C(=O)[C@H](Cc3ccc(F)cc3)NC(=O)[C@H](C)N(C)C(=O)CN(CCOC)C2=O)C(C)(C)C)cc1] (cyclo(F[Tle]Y[Nme][NMeA][Phe(4-F)][NMeA][Phe(4-Cl)][dPip]P)) yielded an IC50 against Human MDM2 (HDM2) 1-116 [1] of 2.5 to 5 µM.
On Human MDM2 (HDM2) 1-116 [1], `COCCN1CC(=O)N(C)[C@@H](C)C(=O)N[C@@H](Cc2ccc(F)cc2)C(=O)N(C)[C@@H](C)C(=O)N[C@@H](Cc2ccc(Cl)cc2)C(=O)N(C)[C@H](C(C)C)C(=O)N2CCC[C@H]2C(=O)N[C@@H](Cc2ccccc2)C(=O)N[C@@H](C(C)(C)C)C(=O)N[C@@H](Cc2ccc(O)cc2)C1=O` [Compound 31, [H]Oc1ccc(C[C@@H]2NC(=O)[C@@H](NC(=O)[C@H](Cc3ccccc3)NC(=O)[C@@H]3CCCN3C(=O)[C@@H](C(C)C)N(C)C(=O)[C@H](Cc3ccc(Cl)cc3)NC(=O)[C@H](C)N(C)C(=O)[C@H](Cc3ccc(F)cc3)NC(=O)[C@H](C)N(C)C(=O)CN(CCOC)C2=O)C(C)(C)C)cc1] (cyclo(F[Tle]Y[Nme][NMeA][Phe(4-F)][NMeA][Phe(4-Cl)][dNMeV]P)) had a concentration for half-maximal inhibition (IC50) of no less than 5 µM.
Consider `COCC[C@@H]1NC(=O)[C@H]2CCCN2C(=O)[C@H](Cc2ccccc2)N(C)C(=O)[C@H](Cc2ccc(Cl)cc2)NC(=O)[C@H](C(C)(C)C)NC(=O)[C@H](Cc2ccc(F)cc2)NC(=O)CN(CCOC)C(=O)[C@@H](C)N(C)C(=O)[C@H](Cc2ccc(O)cc2)NC(=O)[C@H](C)N(C)C1=O` [Compound 32, [H]Oc1ccc(C[C@@H]2NC(=O)[C@H](C)N(C)C(=O)[C@H](CCOC)NC(=O)[C@H]3CCCN3C(=O)[C@H](Cc3ccccc3)N(C)C(=O)[C@H](Cc3ccc(Cl)cc3)NC(=O)[C@@H](NC(=O)[C@H](Cc3ccc(F)cc3)NC(=O)CN(CCOC)C(=O)[C@@H](C)N(C)C2=O)C(C)(C)C)cc1] (cyclo([NMeA]Y[dNMeA][Nme][Phe(4-F)][Tle][Phe(4-Cl)][NMeF][dP][hSer](Me))), for which the IC50 on Human MDM4 (HDM4) 1-114 (setting [3]) was greater than 0.15 µM; on Human MDM2 (HDM2) 1-116 [2] (setting [4]), less than 0.025 µM.
On to `COCC[C@@H]1NC(=O)[C@H]2CCCN2C(=O)[C@H](Cc2ccccc2)N(C)C(=O)[C@H](Cc2ccc(Cl)cc2)NC(=O)CN(C)C(=O)[C@H](Cc2ccc(F)cc2)NC(=O)[C@H](C)N(C)C(=O)[C@@H](C)N(C)C(=O)[C@H](Cc2cscn2)NC(=O)[C@H](C)N(C)C1=O` [Compound 33, COCC[C@@H]1NC(=O)[C@H]2CCCN2C(=O)[C@H](CC2=CC=CC=C2)N(C)C(=O)[C@H](CC2=CC=C(Cl)C=C2)NC(=O)CN(C)C(=O)[C@H](CC2=CC=C(F)C=C2)NC(=O)[C@H](C)N(C)C(=O)[C@@H](C)N(C)C(=O)[C@H](CC2=CSC=N2)NC(=O)[C@H](C)N(C)C1=O] (cyclo([Ala(4-thiazolyl)][dNMeA][NMeA][Phe(4-F)][Sar][Phe(4-Cl)][NMeF][dP][hSer](Me)[NMeA])), for which the IC50 against Human MDM4 (HDM4) 1-114 is 0.05 to 0.1 µM; against Human MDM2 (HDM2) 1-116 [2] it was less than 0.025 µM.
Turning to `COCC[C@@H]1NC(=O)[C@H]2CCCN2C(=O)[C@H](Cc2ccccc2)N(C)C(=O)[C@H](Cc2ccc(Cl)cc2)NC(=O)[C@H](C)N(C)C(=O)[C@H](Cc2ccc(F)cc2)NC(=O)[C@H](C)N(C)C(=O)[C@@H](C)N(C)C(=O)[C@H](Cc2cscn2)NC(=O)[C@H](C)N(C)C1=O` [Compound 34, COCC[C@@H]1NC(=O)[C@H]2CCCN2C(=O)[C@H](CC2=CC=CC=C2)N(C)C(=O)[C@H](CC2=CC=C(Cl)C=C2)NC(=O)[C@H](C)N(C)C(=O)[C@H](CC2=CC=C(F)C=C2)NC(=O)[C@H](C)N(C)C(=O)[C@@H](C)N(C)C(=O)C@H](CC2=CSC=N2)NC(=O)[C@H](C)N(C)C1=O] (cyclo([Ala(4-thiazolyl)][dNMeA][NMeA][Phe(4-F)][NMeA][Phe(4-Cl)][NMeF][dP][hSer](Me)[NMeA])), the IC50 at Human MDM4 (HDM4) 1-114 (setting [3]) is greater than 0.15 µM; at Human MDM2 (HDM2) 1-116 [2] (setting [4]) it was 0.025 to 0.05 µM.
On to `COCC[C@@H]1NC(=O)[C@H]2CCCN2C(=O)[C@H](Cc2ccccc2)N(C)C(=O)[C@H](Cc2ccc(Cl)cc2)NC(=O)[C@H](C(C)(C)C)NC(=O)[C@H](Cc2ccc(F)cc2)NC(=O)[C@H](C)N(C)C(=O)[C@@H](C)N(C)C(=O)[C@H](Cc2cscn2)NC(=O)[C@H](C)N(C)C1=O` [Compound 36, COCC[C@@H]1NC(=O)[C@H]2CCCN2C(=O)[C@H](Cc2ccccc2)N(C)C(=O)[C@H](Cc2ccc(Cl)cc2)NC(=O)[C@@H](NC(=O)[C@H](Cc2ccc(F)cc2)NC(=O)[C@H](C)N(C)C(=O)[C@@H](C)N(C)C(=O)[C@H](CC2=CSC=N2)NC(=O)[C@H](C)N(C)C1=O)C(C)(C)C] (cyclo([Ala(4-thiazolyl)][dNMeA][NMeA][Phe(4-F)][Tle][Phe(4-Cl)][NMeF][dP][hSer](Me)[NMeA])), for which the IC50 at Human MDM4 (HDM4) 1-114 (setting [3]) is 0.05 to 0.1 µM; on Human MDM2 (HDM2) 1-116 [2] (setting [4]) it was less than 0.025 µM.
For `COCC[C@@H]1NC(=O)[C@H]2CCCN2C(=O)[C@H](Cc2ccc(F)cc2)N(C)C(=O)[C@H](Cc2ccc(Cl)cc2)NC(=O)[C@H](C(C)(C)C)NC(=O)[C@H](Cc2ccc(F)cc2)NC(=O)CN(CCOC)C(=O)[C@@H](C)N(C)C(=O)[C@H](Cc2cscn2)NC(=O)[C@H](C)N(C)C1=O` [Compound 37, COCC[C@@H]1NC(=O)[C@H]2CCCN2C(=O)[C@H](Cc2ccc(F)cc2)N(C)C(=O)[C@H](CC2=CC=C(Cl)C=C2)NC(=O)[C@@H](NC(=O)[C@H](Cc2ccc(F)cc2)NC(=O)CN(CCOC)C(=O)[C@@H](C)N(C)C(=O)[C@H](CC2=CSC=N2)NC(=O)[C@H](C)N(C)C1=O)C(C)(C)C] (cyclo([Ala(4-thiazolyl)][dNMeA][Nme][Phe(4-F)][Tle][Phe(4-Cl)][NMePhe(4-F)][dP][hSer](Me)[NMeA])), in that order: 0.05 to 0.1 µM and 0.025 to 0.05 µM.
In the same order, the values of `COCC[C@@H]1NC(=O)[C@H]2CCCN2C(=O)[C@H](Cc2ccc(F)cc2)N(C)C(=O)[C@H](Cc2ccc(Cl)cc2)NC(=O)[C@H](C(C)(C)C)NC(=O)[C@H](Cc2ccc(F)cc2)NC(=O)[C@H](C)N(C)C(=O)[C@@H](C)N(C)C(=O)[C@H](Cc2cscn2)NC(=O)[C@H](C)N(C)C1=O` [Compound 38, COCC[C@@H]1NC(=O)[C@H]2CCCN2C(=O)[C@H](Cc2ccc(F)cc2)N(C)C(=O)[C@H](CC2=CC=C(Cl)C=C2)NC(=O)[C@@H](NC(=O)[C@H](Cc2ccc(F)cc2)NC(=O)[C@H](C)N(C)C(=O)[C@@H](C)N(C)C(=O)[C@H](CC2=CSC=N2)NC(=O)[C@H](C)N(C)C1=O)C(C)(C)C] (cyclo([Ala(4-thiazolyl)][dNMeA][NMeA][Phe(4-F)][Tle][Phe(4-Cl)][NMePhe(4-F)][dP][hSer](Me)[NMeA])) are 0.05 to 0.1 µM and 0.025 to 0.05 µM.
In the same order, the values of `COCC[C@@H]1NC(=O)[C@H]2CCCN2C(=O)[C@H](Cc2ccccc2)N(C)C(=O)[C@H](Cc2ccc(Cl)cc2)NC(=O)[C@H](C)N(C)C(=O)[C@H](Cc2ccc(F)cc2)NC(=O)CN(CCOC)C(=O)[C@@H](C)N(C)C(=O)[C@H](Cc2cscn2)NC(=O)[C@H](C)N(C)C1=O` [Compound 40, COCC[C@@H]1NC(=O)[C@H]2CCCN2C(=O)[C@H](CC2=CC=CC=C2)N(C)C(=O)[C@H](CC2=CC=C(Cl)C=C2)NC(=O)[C@H](C)N(C)C(=O)[C@H](CC2=CC=C(F)C=C2)NC(=O)CN(CCOC)C(=O)[C@@H](C)N(C)C(=O)[C@H](CC2=CSC=N2)NC(=O)[C@H](C)N(C)C1=O] (cyclo([Ala(4-thiazolyl)][dNMeA][Nme][Phe(4-F)][NMeA][Phe(4-Cl)][NMeF][dP][hSer](Me)[NMeA])) are greater than 0.15 µM and 0.025 to 0.05 µM.
`COCC[C@@H]1NC(=O)[C@H]2CCCN2C(=O)[C@H](Cc2ccccc2)N(C)C(=O)[C@H](Cc2ccc(Cl)cc2)NC(=O)[C@H](C(C)C)NC(=O)[C@H](Cc2ccc(F)cc2)NC(=O)CN(CCOC)C(=O)[C@@H](C)N(C)C(=O)[C@H](Cc2cscn2)NC(=O)[C@H](C)N(C)C1=O` [Compound 41, COCC[C@@H]1NC(=O)[C@H]2CCCN2C(=O)[C@H](CC2=CC=CC=C2)N(C)C(=O)[C@H](CC2=CC=C(Cl)C=C2)NC(=O)[C@@H](NC(=O)[C@H](CC2=CC=C(F)C=C2)NC(=O)CN(CCOC)C(=O)[C@@H](C)N(C)C(=O)[C@H](CC2=CSC=N2)NC(=O)[C@H](C)N(C)C1=O)C(C)C] (cyclo([Ala(4-thiazolyl)][dNMeA][Nme][Phe(4-F)]V[Phe(4-Cl)][NMeF][dP][hSer](Me)[NMeA])): the IC50 at Human MDM4 (HDM4) 1-114 (setting [3]) is less than 0.05 µM; at Human MDM2 (HDM2) 1-116 [2] (setting [4]) it was less than 0.025 µM.
